Experimental data taken from ChEMBL document CHEMBL5625242, “Discovery of brain permeable 2-Azabicyclo[2.2.2]octane sulfonamides as a novel class of presenilin-1 selective γ-secretase inhibitors” (Eur J Med Chem, 2023).
pIC50: −log10 of the molar value. In brackets after ≈: the same amount, converted by molar mass.

What was measured:
[1] = Ratio of unbound drug concentration in brain to plasma in Swiss mouse at 2.5 mg/kg, iv measured at 5 mins post-dose; type: ADME, organism-based; details: read-out: K(p,uu,brain)
[2] = Ratio of drug concentration in brain to plasma of Swiss mouse at 2.5 mg/kg, iv measured at 5 mins post-dose; type: ADME, organism-based; details: read-out: BPR
[3] = Protein binding in mouse plasma assessed as free fraction at 5 uM incubated for 4.5 hrs by HPLC analysis; type: ADME, cell-free
[4] = Inhibition of human PSEN2/APH1B expressed in MEF cells with Psen1/2 double knockout/Aph1ABC triple knockout by ELISA; type: cell-based
[5] = test system: calcium channel; test: Inhibition of rat calcium channel; type: toxicity
[6] = Drug concentration in Swiss mouse brain at 2.5 mg/kg, iv measured at 5 mins post-dose; type: ADME, organism-based; details: read-out: Ct
[7] = Free fraction in rat brain homogenate at 5 uM incubated for 5 hrs by HPLC-MS/MS analysis; type: ADME, tissue-based
[8] = test system: human MDR1; test: Efflux ratio of apparent permeability basal to apical side over apical to basal side in MDCK cells transfected with human MDR1 at 5 uM by LC-MS/MS analysis; type: ADME, cell-based, Canis lupus familiaris; details: dog
[9] = Kinetic solubility of compound at pH 4; type: physicochemical; details: buffer, read-out: Kinetic_solubility
[10] = test system: human MDR1; test: Apparent permeability across apical to basal side in MDCK cells transfected with human MDR1 at 5 uM by LC-MS/MS analysis; type: ADME, cell-based, Canis lupus familiaris; details: dog
[11] = Inhibition of human PSEN1/APH1A expressed in MEF cells with Psen1/2 double knockout/Aph1ABC triple knockout by ELISA; type: cell-based
[12] = molecular target: Cytochrome P450 2C9 (Homo sapiens, UniProt P11712); test: Inhibition of human CYP2C9 using tolbutamide as substrate by fluorescence based assay; type: ADME
[13] = Kinetic solubility of compound at pH 2; type: physicochemical; details: buffer, read-out: Kinetic_solubility
[14] = molecular target: Cytochrome P450 2C19 (Homo sapiens, UniProt P33261); test: Inhibition of human CYP2C19 using S-mephenytoin as substrate by fluorescence based assay; type: ADME
[15] = Protein binding in human plasma assessed as free fraction at 5 uM incubated for 4.5 hrs by HPLC analysis; type: ADME, cell-free
[16] = Unbound drug concentration in Swiss mouse plasma at 2.5 mg/kg, iv measured at 5 mins post-dose; type: ADME, organism-based; details: in vivo
[17] = Metabolic stability in human liver microsomes assessed as intrinsic clearance; type: ADME, Microsome; details: microsomes
[18] = test system: sodium channel; test: Inhibition of rat sodium channel; type: toxicity
[19] = molecular target: Cytochrome P450 3A4 (Homo sapiens, UniProt P08684); test: Inhibition of human CYP3A4 using midazolam as substrate by fluorescence based assay; type: ADME
[20] = molecular target: Cytochrome P450 2D6 (Homo sapiens, UniProt P10635); test: Inhibition of human CYP2D6 using dextrometorphan as substrate by fluorescence based assay; type: ADME
[21] = Drug concentration in Swiss mouse plasma at 2.5 mg/kg, iv measured at 5 mins post-dose; type: ADME, organism-based
[22] = Metabolic stability in mouse liver microsomes assessed as intrinsic clearance; type: ADME, Microsome; details: microsomes
[23] = molecular target: T1, Cytochrome P450 1A2 (Homo sapiens, UniProt P05177); test: Inhibition of human CYP1A2 using phenacetin as substrate by fluorescence based assay; type: ADME
T1 sequence (P05177 whole entry): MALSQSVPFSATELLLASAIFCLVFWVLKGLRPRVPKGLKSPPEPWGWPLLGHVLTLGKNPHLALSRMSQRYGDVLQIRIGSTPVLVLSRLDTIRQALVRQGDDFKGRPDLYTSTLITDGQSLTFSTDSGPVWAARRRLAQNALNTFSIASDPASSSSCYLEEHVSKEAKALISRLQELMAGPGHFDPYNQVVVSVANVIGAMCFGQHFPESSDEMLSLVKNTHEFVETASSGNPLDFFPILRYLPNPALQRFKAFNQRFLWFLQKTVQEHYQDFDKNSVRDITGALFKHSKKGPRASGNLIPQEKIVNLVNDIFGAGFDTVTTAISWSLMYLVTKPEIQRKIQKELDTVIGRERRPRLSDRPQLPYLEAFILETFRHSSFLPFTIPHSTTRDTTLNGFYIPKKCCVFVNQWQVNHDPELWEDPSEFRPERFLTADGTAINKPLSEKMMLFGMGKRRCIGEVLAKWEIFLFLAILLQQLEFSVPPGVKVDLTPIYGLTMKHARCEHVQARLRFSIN

[24] = Inhibition of human PSEN2/APH1A expressed in MEF cells with Psen1/2 double knockout/Aph1ABC triple knockout by ELISA; type: cell-based
[25] = Kinetic solubility of compound at pH 7.4; type: physicochemical; details: buffer, read-out: Kinetic_solubility
[26] = molecular target: T2, Cytochrome P450 2C8 (Homo sapiens, UniProt P10632); test: Inhibition of human CYP2C8 using amodiaquine as substrate by fluorescence based assay; type: ADME
T2 sequence (P10632 whole entry): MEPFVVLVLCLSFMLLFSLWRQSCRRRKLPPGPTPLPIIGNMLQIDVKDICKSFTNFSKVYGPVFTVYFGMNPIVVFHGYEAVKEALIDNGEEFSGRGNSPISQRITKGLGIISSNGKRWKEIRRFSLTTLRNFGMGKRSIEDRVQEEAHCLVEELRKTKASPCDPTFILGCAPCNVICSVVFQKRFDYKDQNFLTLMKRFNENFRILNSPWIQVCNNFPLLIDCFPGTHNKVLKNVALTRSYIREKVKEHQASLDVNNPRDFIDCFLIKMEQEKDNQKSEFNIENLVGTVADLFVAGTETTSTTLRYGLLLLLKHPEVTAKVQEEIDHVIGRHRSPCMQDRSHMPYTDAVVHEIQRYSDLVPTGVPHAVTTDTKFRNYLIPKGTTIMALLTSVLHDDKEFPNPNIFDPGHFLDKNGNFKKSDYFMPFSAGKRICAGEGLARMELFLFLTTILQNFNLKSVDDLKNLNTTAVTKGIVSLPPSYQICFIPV

[27] = molecular target: Voltage-gated inwardly rectifying potassium channel KCNH2 (Homo sapiens, UniProt Q12809); test: Inhibition of hERG; type: toxicity
[28] = Inhibition of human PSEN1/APH1B expressed in MEF cells with Psen1/2 double knockout/Aph1ABC triple knockout by ELISA; type: cell-based
[29] = Volume of distribution at steady state in CD-1 mouse at 30 mg/kg, po measured at 4 hrs post-dose; type: ADME, organism-based; details: in vivo
[30] = Tmax in CD-1 mouse at 30 mg/kg, po measured at 4 hrs post-dose; type: ADME, organism-based; details: in vivo
[31] = MRT in CD-1 mouse at 30 mg/kg, po measured at 4 hrs post-dose; type: ADME, organism-based; details: in vivo
[32] = AUClast in CD-1 mouse at 30 mg/kg, po measured at 4 hrs post-dose; type: ADME, organism-based; details: in vivo
[33] = Half life in CD-1 mouse at 30 mg/kg, po measured at 4 hrs post-dose; type: ADME, organism-based; details: in vivo
[34] = AUC (0 to infinity) in CD-1 mouse at 30 mg/kg, po measured at 4 hrs post-dose; type: ADME, organism-based; details: in vivo

Sequence of Cytochrome P450 2C9 (P11712 whole entry): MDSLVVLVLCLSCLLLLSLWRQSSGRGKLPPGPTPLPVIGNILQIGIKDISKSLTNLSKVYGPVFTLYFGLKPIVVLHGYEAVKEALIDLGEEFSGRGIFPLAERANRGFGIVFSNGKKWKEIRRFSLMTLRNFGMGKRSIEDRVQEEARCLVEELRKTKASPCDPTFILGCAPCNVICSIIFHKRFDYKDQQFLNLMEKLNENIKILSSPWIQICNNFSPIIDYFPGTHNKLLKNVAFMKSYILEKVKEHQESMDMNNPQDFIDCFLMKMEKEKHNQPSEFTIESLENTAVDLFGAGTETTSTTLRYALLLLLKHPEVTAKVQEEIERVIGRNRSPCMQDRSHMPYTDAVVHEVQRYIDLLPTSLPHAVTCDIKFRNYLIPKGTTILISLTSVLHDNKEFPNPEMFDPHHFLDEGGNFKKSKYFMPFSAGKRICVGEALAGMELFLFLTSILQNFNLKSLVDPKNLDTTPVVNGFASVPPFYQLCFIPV
Sequence of Cytochrome P450 3A4 (P08684 whole entry): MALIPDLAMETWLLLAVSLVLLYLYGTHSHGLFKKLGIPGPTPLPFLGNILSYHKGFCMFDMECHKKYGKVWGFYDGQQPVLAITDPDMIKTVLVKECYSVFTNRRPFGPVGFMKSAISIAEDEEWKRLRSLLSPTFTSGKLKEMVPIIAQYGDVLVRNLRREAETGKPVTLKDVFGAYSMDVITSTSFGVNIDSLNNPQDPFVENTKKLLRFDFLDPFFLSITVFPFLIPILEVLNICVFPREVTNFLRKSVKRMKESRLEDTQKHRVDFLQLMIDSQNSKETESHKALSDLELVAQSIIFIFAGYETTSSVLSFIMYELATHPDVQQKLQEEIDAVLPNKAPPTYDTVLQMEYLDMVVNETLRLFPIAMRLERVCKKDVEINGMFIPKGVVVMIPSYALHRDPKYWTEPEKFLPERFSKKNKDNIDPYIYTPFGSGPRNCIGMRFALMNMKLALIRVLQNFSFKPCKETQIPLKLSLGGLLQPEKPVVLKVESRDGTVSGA
Sequence of Cytochrome P450 2C19 (P33261 whole entry): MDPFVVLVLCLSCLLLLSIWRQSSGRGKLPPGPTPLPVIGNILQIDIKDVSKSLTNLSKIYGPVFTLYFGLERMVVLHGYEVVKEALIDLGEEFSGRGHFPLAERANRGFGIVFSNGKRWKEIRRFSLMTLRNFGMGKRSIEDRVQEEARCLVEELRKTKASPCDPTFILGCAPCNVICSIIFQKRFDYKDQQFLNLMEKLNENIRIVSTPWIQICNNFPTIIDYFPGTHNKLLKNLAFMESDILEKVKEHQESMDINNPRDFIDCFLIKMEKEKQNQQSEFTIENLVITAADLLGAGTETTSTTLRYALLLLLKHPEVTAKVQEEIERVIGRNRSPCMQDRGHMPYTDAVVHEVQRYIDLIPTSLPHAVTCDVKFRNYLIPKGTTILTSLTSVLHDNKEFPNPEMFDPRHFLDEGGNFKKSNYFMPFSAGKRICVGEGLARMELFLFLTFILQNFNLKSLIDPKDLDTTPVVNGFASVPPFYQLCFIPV
Sequence of Cytochrome P450 2D6 (P10635 whole entry): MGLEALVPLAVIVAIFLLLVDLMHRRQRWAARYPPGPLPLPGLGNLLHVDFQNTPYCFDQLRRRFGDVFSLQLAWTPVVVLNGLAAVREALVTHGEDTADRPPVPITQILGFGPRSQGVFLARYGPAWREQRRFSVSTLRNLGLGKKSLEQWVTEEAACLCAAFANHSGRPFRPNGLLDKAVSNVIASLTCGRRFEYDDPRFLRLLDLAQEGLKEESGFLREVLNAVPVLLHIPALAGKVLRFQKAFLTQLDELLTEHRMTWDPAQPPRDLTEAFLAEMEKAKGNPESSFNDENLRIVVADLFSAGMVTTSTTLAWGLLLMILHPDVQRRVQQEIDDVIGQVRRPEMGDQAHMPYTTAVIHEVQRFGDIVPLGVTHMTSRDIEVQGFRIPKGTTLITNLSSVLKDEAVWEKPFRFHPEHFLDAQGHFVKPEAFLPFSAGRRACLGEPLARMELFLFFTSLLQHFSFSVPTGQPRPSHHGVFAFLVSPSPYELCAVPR
Sequence of Voltage-gated inwardly rectifying potassium channel KCNH2 (Q12809 whole entry): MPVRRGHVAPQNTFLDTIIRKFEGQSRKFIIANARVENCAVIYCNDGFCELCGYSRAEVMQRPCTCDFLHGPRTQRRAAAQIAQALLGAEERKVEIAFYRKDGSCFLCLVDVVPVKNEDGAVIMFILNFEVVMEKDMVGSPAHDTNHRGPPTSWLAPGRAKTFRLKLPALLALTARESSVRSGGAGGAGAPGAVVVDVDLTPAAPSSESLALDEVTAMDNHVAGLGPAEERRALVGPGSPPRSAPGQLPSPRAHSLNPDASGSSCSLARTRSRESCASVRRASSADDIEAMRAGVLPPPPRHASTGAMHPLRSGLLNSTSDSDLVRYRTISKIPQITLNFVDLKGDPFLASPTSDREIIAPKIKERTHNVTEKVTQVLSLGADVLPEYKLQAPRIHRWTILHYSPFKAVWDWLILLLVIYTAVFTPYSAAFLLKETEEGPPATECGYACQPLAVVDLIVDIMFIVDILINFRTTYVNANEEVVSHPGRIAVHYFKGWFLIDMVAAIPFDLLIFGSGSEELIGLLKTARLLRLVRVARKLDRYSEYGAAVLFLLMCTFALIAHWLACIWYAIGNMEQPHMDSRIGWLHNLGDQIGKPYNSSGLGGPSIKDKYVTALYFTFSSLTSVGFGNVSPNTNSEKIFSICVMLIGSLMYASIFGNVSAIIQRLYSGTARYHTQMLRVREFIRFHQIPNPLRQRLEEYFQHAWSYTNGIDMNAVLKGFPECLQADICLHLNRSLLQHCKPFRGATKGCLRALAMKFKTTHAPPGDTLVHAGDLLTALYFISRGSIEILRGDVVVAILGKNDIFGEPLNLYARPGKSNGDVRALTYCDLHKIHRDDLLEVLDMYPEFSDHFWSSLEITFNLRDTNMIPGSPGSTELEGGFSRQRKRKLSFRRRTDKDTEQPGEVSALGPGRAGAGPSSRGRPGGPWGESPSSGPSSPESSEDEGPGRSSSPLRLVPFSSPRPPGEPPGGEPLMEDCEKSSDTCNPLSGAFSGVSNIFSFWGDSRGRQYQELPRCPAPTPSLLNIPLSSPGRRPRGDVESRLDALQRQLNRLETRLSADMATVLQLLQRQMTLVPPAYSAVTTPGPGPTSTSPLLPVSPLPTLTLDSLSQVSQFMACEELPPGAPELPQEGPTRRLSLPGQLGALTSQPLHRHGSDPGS

Row | Kp uu at 5 min [1] | Kp at 5 min [2] | fraction unbound at 4.5 h, 5 µM [3] | pIC50 [4] | concentration at 5 min [6] | fraction unbound at 5 h, 5 µM [7] | efflux ratio at 5 µM [8] | solubility kinetic [9] | Papp A→B at 5 µM [10] | pIC50 [11] | pIC50 [12] | solubility kinetic [13] | pIC50 [14] | Cp(f) [16] | pIC50 [19] | pIC50 [20] | concentration at 5 min [21] | pIC50 [23] | Structure (SMILES) | pIC50 [5] | pIC50 [18] | other results
1 | 0.68 | 0.5 | 0.0869 | 6.11 | 363 ng/g | 0.119 | 32.3 | 13 µM (≈ 5.25 µg/mL) | 2.5 ×10⁻⁶ cm/s | 7.14 | < 5.00 | 13 µM (≈ 5.25 µg/mL) | < 5.00 | 63.5 ng/mL | < 5.00 | < 5.00 | 731 ng/mL | < 5.00 | N#Cc1ccc([C@@H]2[C@@H]3CC[C@@H](C[C@@H]3O)N2S(=O)(=O)c2ccc(Cl)cc2)cn1 | < 5.00 | < 5.00 | fraction unbound at 4.5 h, 5 µM [15]: 0.156; CLH [17]: 78.4 µL/min/mg; CLH [22]: 110 µL/min/mg; pIC50 [24]: 5.91; solubility kinetic [25]: 7 µM (≈ 2.83 µg/mL); pIC50 [26]: < 5.00; pIC50 [27]: < 5.00; pIC50 [28]: 7.89
2 | 1.97 | 5.4 | 0.00309 | 5.67 | 3620 ng/g | 0.00115 | 1.95 | 12 µM (≈ 5.35 µg/mL) | 6.3 ×10⁻⁶ cm/s | 7.72 | < 5.00 | 13 µM (≈ 5.8 µg/mL) | < 5.00 | 2.1 ng/mL | 5.52 | < 5.00 | 680 ng/mL | < 5.00 | O=S(=O)(c1ccc(Cl)cc1)N1[C@H]2CC[C@@H]([C@H]1c1ccc(C(F)(F)F)cc1)[C@@H](O)C2 | < 5.00 | < 5.00 | Vdss [29]: 3.43 L/kg; Tmax [30]: 120 min; MRT [31]: 27.2 min; AUC(0-t) at 4 h [32]: 163 ng·h/mL; pIC50 [24]: 5.71; solubility kinetic [25]: 18 µM (≈ 8.03 µg/mL); half-life [33]: 28.9 min; AUC [34]: 174 ng·h/mL; pIC50 [26]: < 5.00; pIC50 [27]: < 5.00; pIC50 [28]: 8.26
